Measured values published in patent US8309586B2, “Glucokinase activators and pharmaceutical compositions containing the same as an active ingredient” (LG Life Sciences Ltd., priority 2007, dated 2012).

system: Glucokinase known as hexokinase IV (human GK isoform 1, pancreas form and human GK isoform 2, liver form); assay: Glucokinase enzymatic activity assay (G6PDH-coupled, NADH absorbance at 340 nm); type: biochemical; conditions: 5 mM glucose, 1 mM ATP, 37 nM GK, 10 min at room temperature
Description: Glucokinase known as hexokinase IV (human GK isoform 1, pancreas form and human GK isoform 2, liver form) was cloned into an expression vector pET15 fx (Novagen Co.), transformed to E. coli BL21 (DE3) (Invitrogen Co.) strain, expressed, and purified using a nickel column. Then, the glucokinase obtained from dialysis was used in the following assay.
Glucokinase assay was performed by measuring absorbance according to the conventional manner. Briefly speaking, glucokinase converts the substrate glucose to glucose-6-phosphate under certain conditions, and glucose-6-phosphate dehydrogenase irreversibly converts glucose-6-phosphate to gluconate-6-phosphate. During this procedure, NADH is formed, and its absorbance is measured to calculate the enzymatic activity.
In the measurement of the enzymatic activity, each compound was diluted by two-fold from the maximum to the minimum concentrations, and 2 μl of each solution was added to 96 well UV plate (BD bioscience). 60 μl of the first mixture (final concentrations 25 mM Hepes, 25 mM KCl, 2 mM MgCl2, 1 mM DTT) was added, and thoroughly mixed. 38 μl of the enzyme mixture (final concentrations 1 mM ATP, 1 mM NAD, 5 mM glucose, 0.85U G6PDH, 37 nM GK) was added (final volume 100 μl), and the mixture was reacted for 10 min at room temperature. The absorbance of NADH was measured at 340 nm using a UV spectrometer (Molecular Device).
The enzyme activating abilities of the compounds according to the present invention are represented as AC1.5 (the compound concentration at which the enzymatic activity is increased by 1.5 times, nM), which is in the range of 0.001 uM to 30 uM or less, preferably 0.001 uM to 10 uM, more preferably 0.001 uM to 1 uM.

SMILES | AC1.5 (the compound concentration at which the enzymatic activity is increased by 1.5 times) [nM]
c1cc(NC2CCCC2)c2[nH]c(C3=N[C@H](CCN4CCCCC4)CS3)cc2c1 [Example 144, cyclopentyl-{2-[(R)-4-(2-piperidin-1-yl-ethyl)-4,5-dihydro-thiazol-2-yl]-1H-indol-7-yl}-amine] | 122
CCOC(=O)CC[C@@H]1CSC(c2cc3cc(Cl)cc(NC4CCCC4)c3[nH]2)=N1 [Example 148, 3-[(R)-2-(5-chloro-7-cyclopentylamino-1H-indol-2-yl)-4,5-dihydro-thiazol-4-yl]propionic acid ethyl ester] | 12
CC(=O)N1CCN(CCC[C@@H]2CSC(c3cc4cc(Cl)cc(NC5CCCC5)c4[nH]3)=N2)CC1 [Example 155, 1-(4-{3-[(R)-2-(5-chloro-7-cyclopentylamino-1H-indol-2-yl)-4,5-dihydro-thiazol-4-yl]-propyl}-piperazin-1-yl)-ethanone] | 12
O=S1(=O)CCN(CC[C@@H]2CSC(c3cc4cc(F)cc(NC5CCOCC5)c4[nH]3)=N2)CC1 [Example 137, (2-{(R)-4-[2-(1,1-dioxo-thiomorpholin-4-yl)-ethyl]-4,5-dihydro-thiazol-2-yl}-5-fluoro-1H-indol-7-yl)-(tetrahydropyran-4-yl)-amine] | 23
CNC(=O)C[C@@H]1CSC(c2cc3cccc(NC4CCOCC4)c3[nH]2)=N1 [Example 92, N-methyl-2-{(R)-2-[7-(tetrahydro-pyran-4-ylamino)-1H-indol-2-yl]-4,5-dihydro-thiazol-4-yl}-acetamide] | 112
CN1CCN(C(=O)C[C@@H]2CSC(c3cc4cc(Cl)cc(NC5CCCC5)c4[nH]3)=N2)CC1 [Example 78, 2-[(R)-2-(5-chloro-7-cyclopentylamino-1H-indol-2-yl)-4,5-dihydro-thiazol-4-yl]-1-(4-methyl-piperazin-1-yl)-ethanone] | 25
CN(C)C1CCN(CC[C@@H]2CSC(c3cc4cc(Cl)cc(NC5CCCC5)c4[nH]3)=N2)C1 (stereo partly drawn) [Example 103, (5-chloro-2-{(R)-4-[2-(3-dimethylamino-pyrrolidin-1-yl)-ethyl]-4,5-dihydro-thiazol-2-yl}-1H-indol-7-yl)-cyclopentyl-amine] | 16
Clc1cc(NC2CCOCC2)c2[nH]c(C3=N[C@H](CCN4CCN(c5cnccn5)CC4)CS3)cc2c1 [Example 122, (5-chloro-2-{(R)-4-[2-(2,3,5,6-tetrahydro-[1,2′]bipyrazinyl-4-yl)-ethyl]-4,5-dihydro-thiazol-2-yl}-1H-indol-7-yl)-(tetrahydropyran-4-yl)-amine] | 60
COC(=O)C[C@@H]1CSC(c2cc3cc(C)cc(NC4CCCC4)c3[nH]2)=N1 [Example 60, [(R)-2-(7-cyclopentylamino-5-methyl-1H-indol-2-yl)-4,5-dihydro-thiazol-4-yl]acetic acid methyl ester] | 29
CC(=O)N1CCN(CC[C@@H]2CSC(c3cc4cc(CS(C)(=O)=O)cc(NC5CCCC5)c4[nH]3)=N2)CC1 [Example 72, 1-(4-{2-[(R)-2-(7-cyclopentylamino-5-methanesulfonylmethyl-1H-indol-2-yl)-4,5-dihydro-thiazol-4-yl]-ethyl}-piperazin-1-yl)-ethanone] | 51
OC[C@@H]1CSC(c2cc3cc(Cn4cccn4)cc(NC4CCCC4)c3[nH]2)=N1 [Example 21, [(R)-2-[7-cyclopentylamino-5-pyrazol-1-ylmethyl-1H-indol-2-yl]-4,5-dihydro-thiazol-4-yl}-methanol] | 16
O=C(O)CC[C@@H]1CSC(c2cc3cc(OC(F)(F)F)cc(NC4CCCC4)c3[nH]2)=N1 [Example 169, 3-[(R)-2-(7-cyclopentylamino-5-trifluoromethoxy-1H-indol-2-yl)-4,5-dihydro-thiazol-4-yl]-propionic acid] | 9
CN(C)CC[C@@H]1CSC(c2cc3cccc(NC4CCCC4)c3[nH]2)=N1 [Example 142, cyclopentyl-{2-[(R)-4-(2-dimethylamino-ethyl)-4,5-dihydro-thiazol-2-yl]-1H-indol-7-yl}-amine] | 85
O=C(O)C1CCCN(CC[C@@H]2CSC(c3cc4cc(Cl)cc(NC5CCOCC5)c4[nH]3)=N2)C1 (stereo partly drawn) [Example 112, 1-(2-{(R)-2-[5-chloro-7-(tetrahydro-pyran-4-ylamino)-1H-indol-2-yl]-4,5-dihydro-thiazol-4-yl}-ethyl)-piperidine-3-carboxylic acid] | 81
OC[C@@H]1CSC(c2cc3cc(Cc4cc[nH]c4)cc(NC4CCCC4)c3[nH]2)=N1 [Example 23, {(R)-2-[7-cyclopentylamino-5-(1H-pyrrol-3-ylmethyl)-1H-indol-2-yl]-4,5-dihydro-thiazol-4-yl}-methanol] | 19

The next lines start with the values.

AC1.5 (the compound concentration at which the enzymatic activity is increased by 1.5 times) [nM] | SMILES
13 | CS(=O)(=O)CC[C@@H]1CSC(c2cc3cc(F)cc(NC4CCCC4)c3[nH]2)=N1 [Example 132, cyclopentyl-{5-fluoro-2-[(R)-4-(2-methanesulfonyl-ethyl)-4,5-dihydro-thiazol-2-yl]-1H-indol-7-yl}-amine]
12 | CCOC(=O)COC[C@@H]1CSC(c2cc3cc(F)cc(NC4CCCC4)c3[nH]2)=N1 [Example 170, [(R)-2-(7-cyclopentylamino-5-fluoro-1H-indol-2-yl)-4,5-dihydro-thiazol-4-ylmethoxy]-acetic acid ethyl ester]
25 | COc1cc(NC2CCCC2)c2[nH]c(C3=N[C@H](CO)CS3)cc2c1 [Example 12, [(R)-2-(7-cyclopentylamino-5-methoxy-1H-indol-2-yl)-4,5-dihydro-thiazol-4-yl]-methanol]
63 | O=C(O)[C@@H]1CCCN1CC[C@@H]1CSC(c2cc3cc(Cl)cc(NC4CCCC4)c3[nH]2)=N1 [Example 107, (S)-1-{2-[(R)-2-(5-chloro-7-cyclopentylamino-1H-indol-2-yl)-4,5-dihydro-thiazol-4-yl]-ethyl}-pyrrolidine-2-carboxylic acid]
72 | O=C(C[C@@H]1CSC(c2cc3cccc(NC4CCCC4)c3[nH]2)=N1)N1CCOCC1 [Example 91, 2-[(R)-2-(7-cyclopentylamino-1H-indol-2-yl)-4,5-dihydro-thiazol-4-yl]-1-morpholin-4-yl-ethanone]
29 | COc1cc(NC2CCCC2)c2[nH]c(C3=N[C@H](CCN4CCN(C(=O)CO)CC4)CS3)cc2c1 [Example 146, 1-(4-{2-[(R)-2-(7-cyclopentylamino-5-methoxy-1H-indol-2-yl)-4,5-dihydro-thiazol-4-yl]-ethyl}-piperazin-1-yl)-2-hydroxy-ethanone]
10 | OCCC[C@@H]1CSC(c2cc3cc(Cl)cc(NC4CCCC4)c3[nH]2)=N1 [Example 150, 3-[(R)-2-(5-chloro-7-cyclopentylamino-1H-indol-2-yl)-4,5-dihydro-thiazol-4-yl]-propan-1-ol]
71 | CC(=O)N1CCN(CC[C@@H]2CSC(c3cc4cccc(Oc5ccccc5)c4[nH]3)=N2)CC1 [Example 175, 1-(4-{2-[(R)-2-(7-phenoxy-1H-indol-2-yl)-4,5-dihydro-thiazol-4-yl]-ethyl}-piperazin-1-yl)-ethanone]
19 | CN(C)C1CCN(C(=O)C[C@@H]2CSC(c3cc4cc(Cl)cc(NC5CCCC5)c4[nH]3)=N2)C1 (stereo partly drawn) [Example 79, 2-[(R)-2-(5-chloro-7-cyclopentylamino-1H-indol-2-yl)-4,5-dihydro-thiazol-4-yl]-1-(3-dimethylamino-pyrrolidin-1-yl)-ethanone]
21 | CCOC(=O)CC[C@@H]1CSC(c2cc3cc(Br)cc(NC4CCCC4)c3[nH]2)=N1 [Example 162, 3-[(R)-2-(5-bromo-7-cyclopentylamino-1H-indol-2-yl)-4,5-dihydro-thiazol-4-yl]-propionic acid ethyl ester]
62 | Clc1cc(NC2CCOCC2)c2[nH]c(C3=N[C@H](CCN4CCN(c5ncccn5)CC4)CS3)cc2c1 [Example 123, (5-chloro-2-{(R)-4-[2-(4-pyrimidin-2-yl-piperazin-1-yl)-ethyl]-4,5-dihydro-thiazol-2-yl}-1H-indol-7-yl)-(tetrahydro-pyran-4-yl)-amine]
